In PubChem BioAssay (NCI):
Several values for one entry are separate records, joined by “and”; a condition that tells them apart may be missing. Identical values can stand only once.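 48-hour exposure; five concentrations; linearly interpolated endpoints. Abbreviation: GI50, concentration required for 50% inhibition of growth. TGI is the concentration that stops growth completely.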

Tests used:
Assay in all cases: growth of human tumour cells (NCI), 48 h
BT-549 breast = tested on: BT-549 breast
CCRF-CEM leukemia = tested on: CCRF-CEM leukemia
HCT-15 colon = tested on: HCT-15 colon
HOP-62 NSCLC = tested on: HOP-62 NSCLC
KM12 colon = tested on: KM12 colon
NCI/ADR-RES ovarian = tested on: NCI/ADR-RES ovarian
PC-3 prostate = tested on: PC-3 prostate
T-47D breast = tested on: T-47D breast
UO-31 renal = tested on: UO-31 renal
IGROV1 ovarian = tested on: IGROV1 ovarian

SMILES	TGI (BT-549 breast)	TGI (CCRF-CEM leukemia)	TGI (HCT-15 colon)	TGI (HOP-62 NSCLC)	TGI (KM12 colon)	TGI (NCI/ADR-RES ovarian)	TGI (PC-3 prostate)	TGI (T-47D breast)	TGI (UO-31 renal)	TGI (IGROV1 ovarian)	GI50 (BT-549 breast)	GI50 (CCRF-CEM leukemia)	GI50 (HCT-15 colon)	GI50 (HOP-62 NSCLC)	GI50 (KM12 colon)	GI50 (NCI/ADR-RES ovarian)	GI50 (T-47D breast)	GI50 (IGROV1 ovarian)	GI50 (UO-31 renal)
O=C(c1cccs1)N(C(=S)OC12CC3CC(CC(C3)C1)C2)c1ccccc1	> 100 µM	52.1 µM	> 100 µM	> 100 µM	> 100 µM	> 100 µM	88.5 µM	> 100 µM	70.3 µM										
COC(=O)c1sc(=S)sc1SCc1ccc(CSc2sc(=S)sc2C(=O)OC)cc1	> 100 µM	> 100 µM	> 100 µM	> 100 µM	> 100 µM	> 100 µM	> 100 µM	> 100 µM	> 100 µM	> 100 µM									
CC1=CC(=O)c2ccccc2C1=O	25.6 µM	5.76 µM	14.1 µM	29.8 µM	23 µM	30.2 µM	16.4 µM	5.33 µM	14 µM	29.2 µM									
O=C(C[n+]1ccc2ccccc2c1)c1ccc2ccc3ccccc3c2c1	24 µM	4.78 µM	18.9 µM	21.1 µM	11.5 µM	32.7 µM	15.3 µM	19.3 µM	17.6 µM	17.2 µM									
COc1ccc(CC(=O)N2CCC3(C)CC(=O)CC=C23)cc1OC (stereo not drawn)	> 100 µM		> 100 µM	> 100 µM	> 100 µM	> 100 µM	> 100 µM	> 100 µM	> 100 µM	> 100 µM									
CC12CC3OC(=O)C1COC14OC5(C2C1=O)C(O)(CCC1C4CC(O)C2(O)CC=CC(=O)C12C)C(=O)OC35C (stereo not drawn)	> 100 µM	> 100 µM	> 100 µM		> 100 µM	> 100 µM	> 100 µM	> 100 µM	> 100 µM	> 100 µM									
CNc1ccc2c(c1)[C@@]1(C)c3ccccc3[C@@H](C2)N1C	35.9 µM	52.7 µM	53 µM	> 100 µM	78.3 µM	64.2 µM	> 100 µM	> 100 µM	> 100 µM	> 100 µM									
C=CCc1cccc2cc(C(=O)Nc3ccccc3)c(=N)oc12	> 100 µM	> 100 µM	> 100 µM	> 100 µM	> 100 µM	> 100 µM	> 100 µM	85.7 µM		> 100 µM									
COc1ccc(C(=O)/C=C/c2cccc([N+](=O)[O-])c2)c(OC)c1	2.99 µM	4.79 µM	2.61 µM	> 50 µM	7.65 µM	> 50 µM		> 50 µM			1.12 µM	1.39 µM	0.916 µM	1.8 µM	1.61 µM	1.53 µM	1.93 µM		
COc1ccc2c(c1)[nH]c1c(/C=C/c3ccccc3)nccc12	29.9 µM	> 100 µM	34.7 µM	41.4 µM	41.2 µM	37.9 µM	38.9 µM	> 100 µM	24 µM	> 100 µM									
CC1=NN(c2cccc(Cl)c2)C2(SCC(=O)N2c2nc3ccccc3s2)/C1=C\c1cccs1 (stereo not drawn)	37.1 µM		54.8 µM	> 100 µM	94.6 µM	48.9 µM	65.6 µM	> 100 µM	60.2 µM	> 100 µM									
CCn1c(-c2ccc(N=NNc3ccc(-c4n[nH]c(=S)n4CC)cc3)cc2)n[nH]c1=S	5.73 µM	61.6 µM	> 100 µM	8.03 µM	5.93 µM	> 100 µM	8.34 µM	4.35 µM	5.62 µM										
CC(=O)C1=C(C)N(c2ccc(C)cc2)C2(O)C=CC(=O)C3C(=O)N(c4ccccc4)C(=O)C132 (stereo not drawn)	39.8 µM	> 100 µM	> 100 µM	> 100 µM	74.2 µM	> 100 µM	62.3 µM	54.6 µM	24.6 µM	22.3 µM									
CNC(=O)OCc1c(CO)nc(SC)n1C		> 100 µM	> 100 µM	> 100 µM	> 100 µM	> 100 µM			> 100 µM	> 100 µM									
[N-]=[N+]=CC(=O)c1ccccc1C#CCCc1ccccc1		62.1 µM	> 100 µM	> 100 µM	> 100 µM				> 100 µM	> 100 µM									
NC(=O)c1cc2ccc(O)cc2oc1=Nc1ccccc1	> 100 µM	> 100 µM	> 100 µM	> 100 µM	> 100 µM	> 100 µM	> 100 µM	66.1 µM	> 100 µM	> 100 µM									
CCC1CN(C(=O)c2ccccc2)C(Cc2c[nH]c3ccccc23)C(=O)C1CC(=O)OC (stereo not drawn)	> 100 µM	> 100 µM	> 100 µM	> 100 µM	> 100 µM	> 100 µM	> 100 µM	> 100 µM	> 100 µM	> 100 µM									
NCCCCc1cc(O)c2c(c1O)C(=O)c1ccccc1C2=O	49.9 µM	14.4 µM	25.5 µM	21.3 µM	24.2 µM	30.5 µM	22.8 µM	43.3 µM	20.3 µM	22.2 µM									
CCCNC(=O)CCC(C)C1CCC2C3C(C[C@H](OC(C)=O)[C@]12C)[C@@]1(C)CCC2(C[C@H]1C[C@H]3OC(C)=O)OOC1(CC[C@]3(C)C4C[C@H](OC(C)=O)[C@]5(C)C(C(C)CCC(=O)NCCC)CCC5C4[C@H](OC(C)=O)C[C@@H]3C1)OO2 (stereo partly drawn)	> 100 µM	> 100 µM	> 100 µM	> 100 µM	> 100 µM	> 100 µM	> 100 µM	> 100 µM	3.31 µM	> 100 µM							> 100 µM		
C[C@H](NC(=O)c1ccc(CNC(=O)/C=C/c2cccc(Oc3ccccc3)c2)cc1)c1ccccc1	> 100 µM	> 100 µM	> 100 µM	> 100 µM	> 100 µM	> 100 µM	> 100 µM	> 100 µM	> 100 µM	> 100 µM									
Nc1ccccc1S(=O)(=O)c1ccccc1		> 100 µM	> 100 µM	> 100 µM	> 100 µM				> 100 µM	> 100 µM									

SMILES	TGI (BT-549 breast)	TGI (CCRF-CEM leukemia)	TGI (HCT-15 colon)	TGI (HOP-62 NSCLC)	TGI (KM12 colon)	TGI (NCI/ADR-RES ovarian)	TGI (PC-3 prostate)	TGI (T-47D breast)	TGI (UO-31 renal)	TGI (IGROV1 ovarian)	GI50 (BT-549 breast)	GI50 (CCRF-CEM leukemia)	GI50 (HCT-15 colon)	GI50 (HOP-62 NSCLC)	GI50 (KM12 colon)	GI50 (NCI/ADR-RES ovarian)	GI50 (T-47D breast)	GI50 (IGROV1 ovarian)	GI50 (UO-31 renal)
COc1cc2c(ccc3c4cc(OC)c(OC)cc4c[n+](C)c23)cc1O		34.6 µM	> 75 µM	21 µM	> 75 µM	> 75 µM			> 75 µM	> 75 µM									
COc1ccc(C(=O)c2sc(Nc3ccc(Cl)cc3)nc2N)cc1	> 100 µM	58.1 µM	> 100 µM	38.6 µM	> 100 µM	> 69.5 µM	> 68.3 µM	> 100 µM	97.7 µM	> 53.9 µM									
CN(C)CC(CC1=C(CC(CN(C)C)N(C)C)CCC1)N(C)C (stereo not drawn)		> 100 µM	> 100 µM	> 100 µM	> 100 µM	> 100 µM			> 100 µM	> 100 µM									
Nc1nc(SCCc2ccccc2)nc2nc3c(c(-c4ccccc4)c12)CCCC3	> 100 µM	> 100 µM	> 100 µM	> 100 µM	> 100 µM	> 100 µM	> 100 µM	> 100 µM	> 100 µM	> 100 µM									
NC(=O)c1c(NC(=O)c2ccccn2)sc2c1CCC(=O)C2	> 100 µM	> 100 µM	> 100 µM	> 100 µM	> 100 µM		> 100 µM	> 100 µM	6.63 µM	> 100 µM	2.18 µM	2.02 µM	2.63 µM	> 100 µM	3.26 µM		2.48 µM	3.24 µM	1.82 µM
O=C(O)C1C2CCC(O2)C1C(=O)Nc1cccc2cccnc12 (stereo not drawn)	> 100 µM		> 100 µM	> 100 µM	> 100 µM	> 100 µM	> 100 µM	> 100 µM	> 100 µM	> 100 µM									
CCN(CC(=O)O)C(=O)c1cccnc1	> 100 µM		> 100 µM	> 100 µM	> 100 µM	> 100 µM	> 100 µM	> 100 µM	> 100 µM	> 100 µM									
CCOC(=O)C1=NN(c2ccc(C)cc2)C2=CC(C)=NN(C)C(=S)N21	> 100 µM	> 100 µM	> 100 µM		> 100 µM	> 100 µM	> 100 µM	61.3 µM	> 100 µM	> 100 µM									
CCOC(=O)C(NC(=O)c1ccco1)(Nc1nc2ccc(OCC)cc2s1)C(F)(F)F (stereo not drawn)	> 100 µM	> 100 µM	> 100 µM		98.3 µM	> 100 µM	93 µM	> 100 µM	> 100 µM										
Nc1cccc(/C=C/C(=O)N2CCN(CCOC(c3ccccc3)c3ccccc3)CC2)c1	29.2 µM	26.4 µM	31.5 µM	32.4 µM	30.7 µM	37.3 µM	28.9 µM	33.1 µM	30.5 µM	33.6 µM									
COc1cccc([C@H]2C/C(=N\NC(=O)C(=O)N[C@@H](C)c3ccccc3)c3ccccc3N2)c1		3.09 µM	> 100 µM		0.0762 µM	0.0535 µM	> 100 µM		> 100 µM					0.0835 µM		< 0.01 µM			
COc1cc2c(cc1O)CC[C@@H]1[C@@H]2CC[C@]2(C)[C@@H](OCCN(C)C)CC[C@@H]12				1.66 µM		0.861 µM			1.48 µM	5.94 µM				0.389 µM		0.163 µM		0.818 µM	0.624 µM
COc1cccc2c1Cc1cc(-c3ccccc3)[n+](C)n1-2	99.5 µM	9.69 µM	> 100 µM	> 100 µM	34.3 µM	> 100 µM	89.7 µM	17.7 µM	90.8 µM	> 100 µM									
O=c1cccccc1[O-].O=c1cccccc1[O-].[O]=[U+2]=[O]			> 100 µM							50.9 µM									
O=C(OCN1C(=O)C2C3C=CC(C2C1=O)C1C2C(=O)N(COC(=O)C4CCCN4)C(=O)C2C31)C1CCCN1 (stereo not drawn)		53.5 µM	> 58.7 µM	> 100 µM	> 100 µM				> 100 µM	> 100 µM									
CCCCCCCCC/C=C/C=C/C(=O)NCC(=O)NC1C(O)C(O)C(Nc2ncnc3nc[nH]c23)OC1C(O)CO (stereo not drawn)					0.608 µM		0.00787 µM		0.0177 µM and 0.0219 µM	0.00337 µM			2.05 µM	0.0011 µM	0.0013 µM				0.00344 µM
NCCSC(c1ccccc1)c1ccccc1	> 100 µM	> 100 µM	> 100 µM	33.7 µM	35.6 µM	> 100 µM	55.6 µM		33.2 µM	27.8 µM									
CCC(C)C1=C(OC(C)=O)[N+]2([O-])Oc3ccc(-c4c(OC(C)=O)c(OC(C)=O)c(-c5ccc(OC(C)=O)cc5)c(OC(C)=O)c4OC(C)=O)cc3OC2(C(C)CC)C(=O)N1OC(C)=O (stereo not drawn)		39.3 µM	> 50 µM		> 50 µM	> 50 µM	> 50 µM	24.8 µM	> 50 µM	34.4 µM									
O=C(/C=C/c1ccc(O)c(-c2cc(C(=O)/C=C/c3ccc(O)cc3)c(O)cc2O)c1)c1ccc(O)cc1O	> 50 µM	37.3 µM	> 50 µM	> 50 µM	31.7 µM	> 50 µM	> 50 µM	> 50 µM	> 50 µM	> 50 µM									
Fc1ccc(C(OCCN2CCC3CCC(C2)N3C/C=C/c2ccco2)c2ccc(F)cc2)cc1 (stereo not drawn)	25.7 µM	0.419 µM	18.6 µM	36.5 µM	30.6 µM	22.4 µM	20.6 µM	20.8 µM	28.8 µM	21 µM									
Cc1ccccc1C(=O)N/N=C/c1ccc(Sc2nccn2C)c([N+](=O)[O-])c1	> 100 µM	> 100 µM	> 100 µM	> 100 µM	> 100 µM	> 100 µM	> 100 µM	> 100 µM	> 100 µM	> 100 µM									
